US12612389B2, “Benzofuran-based N-acylhydrazone derivative and pharmaceutical composition comprising same” (KOREA RESEARCH INSTITUTE OF BIOSCIENCE AND BIOTECHNOLOGY, priority 2019, dated 2026)

How the values were obtained:
[1] = test system: HeLa CCL2 cell line; assay: Effect test on cell cycle progression (propidium iodine, FACS); type: cell-based, human
[2] = Solubility of the compound in the toxicity-test solvent; type: physicochemical; settings: N′,N′-dimethylacetamide/Kolliphor/2-hydroxypropyl-β-cyclodextrin (10% in distilled water)=40:10:50; thicker solutions precipitated
Procedure: (§1) 100 mg/kg of the compound of Example 4 was dissolved in a solvent (N′,N′-dimethylacetamide/Kolliphor/2-hydroxypropyl-β-cyclodextrin (10% concentration of distilled water solution)=40:10:50). When the concentration became thicker than that, the reaction solution immediately precipitated. The solution in which the compound of Example 4 was dissolved from 12.5 mg/kg to 100 mg/kg was injected into the peritoneal cavity of mice 10 times […] in a volume of 100 μL (see FIG. 8A). All animals survived to the final day, and no particular problems were seen by visual observation (see Table 13 and FIG. 8A).

[3] = test system: HeLa CCL2 cells; assay: Wound healing assay; type: cell-based, human; settings: up to 100 nM, FIGS. 6A and 6B
Procedure: HeLa CCL2 cells were cultured in 6 wells at 100%, wounded with a yellow tip, and treated with 50 nM and 100 nM of the compound of Example 4. In order to observe the effect of the drug, the degree of cell migration was compared and observed by recording the state of the cells before treatment as images, and comparing the cell state before drug treatment with the state of the cells at 24, 36, and 48 hours post the drug treatment. The concentration of the compound of Example 4 treated with the cells was determined by performing MTT assay.

[4] = parameters: species or system ICR mice; settings: mouse, in vivo
Procedure: The experimental apparatus was constructed similarly to that used in the paper described by Reyes-Mendez et al. (2018), and was composed of a black acrylic fence (floor area of […] and wall height of 40 cm). The floor surface was divided into 25 squares each having a size of 10×10 cm. For this experiment, mice were placed on the center of the floor and spontaneous activities thereof were recorded for 7 minutes from the top. After the experiment, the experimental apparatus was thoroughly washed with 30% ethanol. Three observers, unaware whether the drug was treated or not, analyzed the first 5 minutes of recorded video to count the number of squares the mouse passed, and add up the time during which the mouse stayed without moving, and the number of times the mouse was groomed or shaken, and the like. Based on the contents analyzed above, the time during which the mouse stayed in the central zone, speed, and total moving distance were calculated. A case where the two-tailed probability value was less than 0.05 (p<0.05) was considered statistically significant.
No statistically significant experimental groups were found as results of open-field experiments in mice.

[5] = test system: MCF7/ADR; assay: Anti-proliferative activity test in cancer cells exhibiting multidrug resistance (MTT); type: cell-based
Procedure: (§2) HeLa cells (American Type Culture Collection: ATCC, USA), a human cervical cancer cell line, were seeded in a 96-well plate at 3×10^3 cells/well, and the cells were then treated with compounds of Examples or Comparative Example according to the present invention and grown for 2 days. Then, MTT (3-(4,5-dimethylthiazol-2-yl)-2,5-diphenyltetrazolium bromide) reagent was added at 10 μL/well. […] The data shown in Table below are mean values of results obtained by repeating the analysis twice. Specifically, K562 and MCF7 (Bio Evaluation Center, Korea Research Institute of Bioscience and Biotechnology, Korea) and multidrug-resistant cell lines of each of these cell lines, i.e., K562/ADR and MCF7/ADR (Bio Evaluation Center, Korea Research Institute of Bioscience and Biotechnology, Korea), were cultured on microtiter plates (1-3×10^3 cells/well). […] The data shown in Table below are mean values of results obtained by repeating the analysis three times.

[6] = test system: K562/ADR; assay: as above; type: cell-based
Procedure: as §2

[7] = test system: HeLa CCL2 cells; assay: In vitro invasion assay (trans well); type: cell-based, human; settings: 10 nM, 50 nM, 100 nM, 250 nM, 16 hours, FIGS. 7A and 7B
Procedure: In addition, in order to confirm the efficacy of inhibiting cell migration again, an invasion assay was performed. A trans well chamber for a 24-well plate was prepared, and HeLa CCL2 cells at a density of 5×10^4 were put into the upper chamber, treated with 10 nM, 50 nM, 100 nM, and 250 nM of the compound of Example 4, and cultured. Then, after 16 hours, the migrated cells were identified and the number thereof was measured through cell staining.

[8] = test system: MEF (mouse); assay: Cytotoxicity in normal cells (MTT); type: cell-based; settings: 96 h, Normal cell, 4 days
[9] = Mouse toxicity test (repeated intraperitoneal injection); type: in vivo, ICR mice; settings: for Survival rate (%): n = 3, i.p., 10 injections
Procedure: All animal experiments and procedures were performed in accordance with ethical standards under the approval of the Institutional Animal Care and Use Committee (IACUC) of the Korea Research Institute of Bioscience and Biotechnology (KRIBB). ICR mice were supplied by Daehan Biolink Co., Ltd (Korea). All mice were housed in sterile animal isolation facilities. All in vivo experiments were performed using 6-8 week old mice.
Acute toxicity test of the compound of Example 4 was performed at the Laboratory Animal Resource Center of the Korea Research Institute of Bioscience and Biotechnology. ICR mice (6-8 weeks old) were acclimatized for up to 10 days before the experiment, and then 3 mice were injected with the drugs. The Example compound was mixed with a solvent and injected intraperitoneally, and after drug treatment, clinical symptoms were observed twice within 24 hours, and additional drug treatment was performed up to 10 times as scheduled. The mice were weighed 5 times as scheduled.
as §1

[10] = test system: HDF (human); assay: Cytotoxicity in normal cells (MTT); type: cell-based; settings: 96 h, Normal cell, 4 days
[11] = test system: K562; assay: Anti-proliferative activity test in cancer cells exhibiting multidrug resistance (MTT), parent line; type: cell-based; settings: Homo sapiens, 96 h, 4 days
Procedure: as §2

[12] = test system: MCF7; assay: as above; type: cell-based; settings: Homo sapiens, 96 h, 4 days
Procedure: as §2

CCOCCn1c(Cl)c(/C=N/NC(=O)c2cc3cc(C)ccc3o2)c2ccccc21 [Example 4, (E)-N′-[(2-chloro-1-(2-ethoxyethyl)-1H-indol-3-yl]methylene}-5-methylbenzofuran-2-carbohydrazide]
number of cells in G2/M phase as a percentage ([1]; 0.2 μM, FACS): 82.36% | cells stopped in the mitotic phase ([1]; 16 hours post treatment): ≥ 80% | Effect (μM): concentration at which cells were collected in the mitotic phase ([1]; FACS): 0.2 µM | IC50 ([1]; Homo sapiens, as stated in text on Table 5): 200 nM | highest concentration dissolved without precipitation [2]: 100 mg/kg | effect on cell growth [3]: did not have a significant effect on cell growth | effect on behavior of mice in open field (time in center zone, speed, total moving distance) [4]: did not affect the behavior of mice in all groups | IC50 ([5]; Homo sapiens, NCI/ADR-RES, 96 h, MCF7/ADR (multidrug-resistant), 4 days, MTT): 332 nM | Resistance Factor ([5]; ratio IC50 MCF7/ADR to IC50 MCF7): 0.40 | IC50 ([6]; Homo sapiens, 96 h, K562/ADR (multidrug-resistant), 4 days, MTT): 201 nM | Resistance Factor ([6]; ratio IC50 K562/ADR to IC50 K562): 0.57 | cancer metastasis inhibitory effect (migrated cells) [7]: excellent cancer metastasis inhibitory effect | IC50 [8]: 4010 ± 4580 nM | Survival rate (%) ([9]; 12.5 mg/kg): 100% | Survival rate (%) ([9]; 25 mg/kg): 100% | Survival rate (%) ([9]; 50 mg/kg): 100% | Survival rate (%) ([9]; 100 mg/kg): 100% | toxicity on dissection (size and morphology of each organ) ([9]; intraperitoneally 10 times at 100 mg/kg): did not induce serious toxicity | IC50 [10]: 27000 ± 7890 nM | IC50 [11]: 350 nM | IC50 [12]: 822 nM
